Laboratory results from US20240261398A1 (priority 2018, published 2024).
Counter-ions that a name gives are not always drawn.

How the values were obtained:
[1] = test system: A/California/07/2009 virus (H1N1; CA07); design: species or system BALB/c mice; conditions: mouse, in vivo
[2] = test system: A/California/07/2009 virus (H1N1; CA07); design: species or system BALB/c mice; conditions: mouse, in vivo; remark: listed apart in the source
[3] = test system: Ebola GP protein; type: in vivo, BALB/c mice

In the case of `O=C1/C(=C2\Nc3ccc(S(=O)(=O)[O-])cc3C2=O)Nc2ccc(S(=O)(=O)[O-])cc21.[Na+].[Na+]` [Indigo Carmine], the “Antibody titers in secondary screening, Vaccine + compound” value (shortened to “Antibody titers in secondary screening”) [1] is reported as 485, the “Relative ratio of antibody titer to alum (compound/alum), secondary screening” value [1] is reported as 0.81 and the “Antibody titers in primary screening, Vaccine + compound” value (“Antibody titers in primary screening” for short) [2] is reported as 1280.00. The “Relative ratio of antibody titer to alum (compound/alum), primary screening” value [2] was 1.50.

In the case of `[Br-].[Na+]` [Sodium bromide], the “Mean value of antibody titers, Only compound” value [1] is reported as <10, the “Mean value of antibody titers, Vaccine + compound” value (from here on “Mean value … Vaccine + compound”) [1] is reported as 970.00 and the “Relative ratio of antibody titer to alum (Compound/alum)” value [1] is reported as 0.87.

In the case of `O=S([O-])([O-])=S.[Na+].[Na+]` [Sodium thiosulfate], the “Mean value of antibody titers, Only compound” value [1] is reported as <10, the “Mean value … Vaccine + compound” value [1] is reported as 1320.00 and the “Relative ratio of antibody titer to alum (Compound/alum)” value [1] is reported as 1.00.

For `CC1=C(/C=C/C(C)=C/C=C/C(C)=C/C=C/C=C(C)/C=C/C=C(C)/C=C/C2=C(C)CCCC2(C)C)C(C)(C)CCC1` [β-Carotene], the “Antibody titers in secondary screening” value [1] was 1120 and the “Antibody titers in primary screening” value [2] was 960.00.

With `OC[C@@H](O)[C@H](O)[C@@H](O)CO` [Xylitol] the “Mean value of antibody titers, Only compound” value [1] was <10, the “Mean value … Vaccine + compound” value [1] was 560.00 and the “Relative ratio of antibody titer to alum (Compound/alum)” value [1] was 0.35.

In the case of `Cn1cnc2c1c(=O)[nH]c(=O)n2C` [Theobromine], the “Antibody titers in secondary screening” value [1] is reported as 1440 and the “Antibody titers in primary screening” value [2] is reported as 1333.33.

For `C[C@@H]1O[C@@H](O[C@H]2[C@H](Oc3cc(O)c4c(c3)O[C@H](c3ccc(O)cc3)CC4=O)O[C@H](CO)[C@@H](O)[C@@H]2O)[C@H](O)[C@H](O)[C@H]1O` [Naringin], the “Antibody titers in secondary screening” value [1] was 2240 and the “Antibody titers in primary screening” value [2] was 2133.33.

`CC(/C=C/C=C(\C)C(=O)O[C@@H]1O[C@H](CO[C@@H]2O[C@H](CO)[C@@H](O)[C@H](O)[C@H]2O)[C@@H](O)[C@H](O)[C@H]1O)=C\C=C\C=C(C)\C=C\C=C(/C)C(=O)O[C@@H]1O[C@H](CO[C@@H]2O[C@H](CO)[C@@H](O)[C@H](O)[C@H]2O)[C@@H](O)[C@H](O)[C@H]1O` [Crocin] was tested, and the “Antibody titers in secondary screening” value [1] was 480 and the “Antibody titers in primary screening” value [2] was 1066.67.

In the case of `CCN(Cc1cccc(S(=O)(=O)[O-])c1)c1ccc(C(=C2C=CC(=[N+](CC)Cc3cccc(S(=O)(=O)[O-])c3)C=C2)c2ccc(O)cc2S(=O)(=O)[O-])cc1.[Na+].[Na+]`, the “Antibody titers in secondary screening” value [1] is reported as 440, the “Relative ratio of antibody titer to alum (compound/alum), secondary screening” value [1] is reported as 0.73 and the “Antibody titers in primary screening” value [2] is reported as 2133.33. The “Relative ratio of antibody titer to alum (compound/alum), primary screening” value [2] was 1.00.

For `[O]=[Zn]` [Zinc oxide], the “Mean value … Vaccine + compound” value ([3]; Ebola VLP 1 μg/dose + compound, i.m. twice, serum two weeks after second immunization, mean of 4 mice) was 400.00, the “Antibody titer ratio (a)” value ([3]; [VLP + candidate compound]/[VLP + AddaVax]) was 0.67 and the “Mean value of antibody titers, Only compound (c)” value ([3]; compound alone, mice treated as in the influenza adjuvant screening) was <10.

`CC(=O)[O-].[Na+]` [Sodium acetate] was tested, and the “Mean value of antibody titers, Only compound” value [1] was <10, the “Mean value … Vaccine + compound” value [1] was 740.00 and the “Relative ratio of antibody titer to alum (Compound/alum)” value [1] was 0.66.

In the case of `O=C([O-])[C@H](O)[C@@H](O)[C@H](O)[C@H](O)CO.[Na+]`, the “Mean value of antibody titers, Only compound” value [1] is reported as <10, the “Mean value … Vaccine + compound” value [1] is reported as 1600.00 and the “Relative ratio of antibody titer to alum (Compound/alum)” value [1] is reported as 1.00.

With `CCN(Cc1cccc(S(=O)(=O)[O-])c1)c1ccc(C(=C2C=CC(=[N+](CC)Cc3cccc(S(=O)(=O)[O-])c3)C=C2)c2ccccc2S(=O)(=O)[O-])cc1.[Na+].[Na+]` the “Antibody titers in secondary screening” value [1] was 990, the “Relative ratio of antibody titer to alum (compound/alum), secondary screening” value [1] was 1.65 and the “Antibody titers in primary screening” value [2] was 1333.33. For the same compound, the “Relative ratio of antibody titer to alum (compound/alum), primary screening” value [2] was 0.69.

For `C[C@@H]1O[C@@H](OC[C@H]2O[C@@H](Oc3c(-c4ccc(O)c(O)c4)oc4cc(O)cc(O)c4c3=O)[C@H](O)[C@@H](O)[C@@H]2O)[C@H](O)[C@H](O)[C@H]1O` [Rutin], the “Antibody titers in secondary screening” value [1] was 1320 and the “Antibody titers in primary screening” value [2] was 2560.00.

In the case of `CC(C)=CCC[C@@H](C)CC=O`, the “Antibody titers in secondary screening” value [1] is reported as 35 and the “Antibody titers in primary screening” value [2] is reported as 333.33.

For `COC(=O)[C@H](Cc1ccccc1)NC(=O)[C@H](CC(=O)O)NCCC(C)(C)C` [Neotame], the “Antibody titers in secondary screening” value [1] was 720, the “Relative ratio of antibody titer to alum (compound/alum), secondary screening” value [1] was 1.00 and the “virus-specific antibody titers compared with the alum adjuvant” value [1] was “equal to or higher than the alum adjuvant did”. The “Antibody titers in primary screening” value [2] was 2560.00 and the “Relative ratio of antibody titer to alum (compound/alum), primary screening” value [2] was 2.00.

In the case of `O=S([O-])O.[Na+]`, the “Mean value of antibody titers, Only compound” value [1] is reported as <10, the “Mean value … Vaccine + compound” value [1] is reported as 730.00 and the “Relative ratio of antibody titer to alum (Compound/alum)” value [1] is reported as 0.55.

`OC[C@H]1O[C@@H]2O[C@H]3[C@H](O)[C@@H](O)[C@@H](O[C@H]4[C@H](O)[C@@H](O)[C@@H](O[C@H]5[C@H](O)[C@@H](O)[C@@H](O[C@H]6[C@H](O)[C@@H](O)[C@@H](O[C@H]7[C@H](O)[C@@H](O)[C@@H](O[C@H]8[C@H](O)[C@@H](O)[C@@H](O[C@H]1[C@H](O)[C@H]2O)O[C@@H]8CO)O[C@@H]7CO)O[C@@H]6CO)O[C@@H]5CO)O[C@@H]4CO)O[C@@H]3CO` [β-Cyclodextrin] was tested, and the “Antibody titers in secondary screening” value [1] was 1440, the “Relative ratio of antibody titer to alum (compound/alum), secondary screening” value [1] was 0.90 and the “Antibody titers in primary screening” value [2] was 373.33. For the same compound, the “Relative ratio of antibody titer to alum (compound/alum), primary screening” value [2] was 0.22.

In the case of `COc1ccc([C@@H]2CC(=O)c3c(O)cc(O[C@@H]4O[C@H](CO[C@@H]5O[C@@H](C)[C@H](O)[C@@H](O)[C@H]5O)[C@@H](O)[C@H](O)[C@H]4O)cc3O2)cc1O` [Hesperidin], the “Antibody titers in secondary screening” value [1] is reported as 2240, the “Relative ratio of antibody titer to alum (compound/alum), secondary screening” value [1] is reported as 4.00 and the “Antibody titers in primary screening” value [2] is reported as 3840.00. For the same compound, the “Relative ratio of antibody titer to alum (compound/alum), primary screening” value [2] was 1.13.

`O=C([O-])[C@H](O)[C@@H](O)[C@H](O)[C@H](O)CO.O=C([O-])[C@H](O)[C@@H](O)[C@H](O)[C@H](O)CO.[Fe+2]` was tested, and the “Antibody titers in secondary screening” value [1] was 3040, the “Relative ratio of antibody titer to alum (compound/alum), secondary screening” value [1] was 1.90 and the “Antibody titers in primary screening” value [2] was 853.33. The “Relative ratio of antibody titer to alum (compound/alum), primary screening” value [2] was 0.76.

In the case of `O=C([O-])c1ccccc1.[Na+]` [Sodium benzoate], the “Mean value of antibody titers, Only compound” value [1] is reported as <10, the “Mean value … Vaccine + compound” value [1] is reported as 1600.00 and the “Relative ratio of antibody titer to alum (Compound/alum)” value [1] is reported as 1.21. The “virus-specific antibody titers compared with the alum adjuvant” value [1] was “equal to or higher than the alum adjuvant did”.

`CC1(C)[C@@H](O[C@H]2O[C@H](C(=O)O)[C@@H](O)[C@H](O)[C@H]2O[C@@H]2O[C@H](C(=O)O)[C@@H](O)[C@H](O)[C@H]2O)CC[C@]2(C)[C@H]3C(=O)C=C4[C@@H]5C[C@@](C)(C(=O)O)CC[C@]5(C)CC[C@@]4(C)[C@]3(C)CC[C@@H]12` was tested, and the “Antibody titers in secondary screening” value [1] was 2560 and the “Antibody titers in primary screening” value [2] was 5973.33.

`O=S([O-])[O-].[Na+].[Na+]` [Sodium sulfite] was tested, and the “Mean value of antibody titers, Only compound” value [1] was <10, the “Mean value … Vaccine + compound” value [1] was 2080.00 and the “Relative ratio of antibody titer to alum (Compound/alum)” value [1] was 1.30. The “virus-specific antibody titers compared with the alum adjuvant” value [1] was “equal to or higher than the alum adjuvant did”.

`c1ccc2cnccc2c1` [Isoquinoline] was tested, and the “Antibody titers in secondary screening” value [1] was 1200 and the “Antibody titers in primary screening” value [2] was 1493.33.

With `CC(C)=CCCC(C)CCO` (racemic) [(+/−)-Citronellol] the “Antibody titers in secondary screening” value [1] was 260 and the “Antibody titers in primary screening” value [2] was 960.00.

With `[Cl-].[K+]` [Potassium chloride] the “Mean value of antibody titers, Only compound” value [1] was <10, the “Mean value … Vaccine + compound” value [1] was 2920.00 and the “Relative ratio of antibody titer to alum (Compound/alum)” value [1] was 1.83.

In the case of `CC(C)=CCC/C(C)=C/COC=O` [Geranyl Formate], the “Antibody titers in secondary screening” value [1] is reported as 960 and the “Antibody titers in primary screening” value [2] is reported as 2560.00.

With `Cc1c(C(=O)O)c(O)cc2c1C(=O)c1c(O)c([C@@H]3O[C@H](CO)[C@@H](O)[C@H](O)[C@H]3O)c(O)c(O)c1C2=O` [Carminic acid] the “Antibody titers in secondary screening” value [1] was 960 and the “Antibody titers in primary screening” value [2] was 746.67.

For `CC(CC=O)CCCC(C)(C)O` (stereo not shown) [Hydroxycitronellal], the “Antibody titers in secondary screening” value [1] was 1280 and the “Antibody titers in primary screening” value [2] was 2773.33.

`CC(C)C1=CC2=CC[C@@H]3[C@](C)(CCC[C@@]3(C)C(=O)O)[C@H]2CC1` [Abietic acid] was tested, and the “Antibody titers in secondary screening” value [1] was 1280 and the “Antibody titers in primary screening” value [2] was 533.33.

For `COC(=O)c1ccccc1N` [Methyl Anthranilate], the “Antibody titers in secondary screening” value [1] was 2240 and the “Antibody titers in primary screening” value [2] was 693.33.

`CC=Cc1ccc(O)c(OC)c1` [Isoeugenol] was tested, and the “Antibody titers in secondary screening” value [1] was 140 and the “Antibody titers in primary screening” value [2] was 2986.67.
